Measurements: patent US8735414B2 (priority 2009, dated 2014)

Tests used:
[1] = system: bicistronic HCV replicon (replicon RNA, GenBank Accession No. AJ242654); assay: HCV Replicon Assay; format: cell-based; conditions: Hepatitis C virus, 72 h, read-out: Replicon IC50

| SMILES | melting point [°C] | IC50 [1] [nM] |
| --- | --- | --- |
| CC(C)NS(=O)(=O)c1ccc(-c2c(C#N)c3ccc(OC(F)(F)F)cc3n2C2CCC2)nc1 [compound 10, 6-[3-cyano-1-cyclobutyl-6-(trifluoromethoxy)-1H-indol-2-yl]-N-(propan-2-yl)pyridine-3-sulfonamide] | 191 to 193 | – |
| C[C@H](NS(=O)(=O)c1ccc(-c2c(C(N)=O)c3cc(F)c(C4CC4)cc3n2C2CCCC2)nc1)C(F)(F)F [compound 842, 1-cyclopentyl-6-cyclopropyl-5-fluoro-2-(5-{[(2S)-1,1,1-trifluoropropan-2-yl]sulfamoyl}pyridin-2-yl)-1H-indole-3-carboxamide] | 255 to 257 | – |
| N#Cc1c(-c2ccc(S(=O)(=O)NC(CF)CF)cn2)n(C2CCC2)c2cc(OC(F)F)ccc12 [compound 31, 6-[3-cyano-1-cyclobutyl-6-(difluoromethoxy)-1H-indol-2-yl]-N-(1,3-difluoropropan-2-yl)pyridine-3-sulfonamide] | 159 to 161 | – |
| N#Cc1c(-c2ccc(S(=O)(=O)NC3(C(F)(F)F)CC3)cn2)n(C2CCC2)c2cc(C3CC3)ccc12 [compound 153, 6-(3-cyano-1-cyclobutyl-6-cyclopropyl-1H-indol-2-yl)-N-[1-(trifluoromethyl)cyclopropyl]pyridine-3-sulfonamide] | 166 to 171 | – |
| N#Cc1c(-c2ccc(S(=O)(=O)NC3(C(F)(F)F)CCC3)cn2)n(C2CCC2)c2cc(OC(F)F)ccc12 [compound 106, 6-[3-cyano-1-cyclobutyl-6-(difluoromethoxy)-1H-indol-2-yl]-N-[1-(trifluoromethyl)cyclobutyl]pyridine-3-sulfonamide] | 162 to 168 | – |
| CC(C)NS(=O)(=O)c1ccc(-c2c(C#N)c3ccc(C4CCC4)cc3n2C2CCC2)nc1 [compound 266, 6-(3-cyano-1,6-dicyclobutyl-1H-indol-2-yl)-N-(propan-2-yl)pyridine-3-sulfonamide] | 178 to 180 | – |
| CC(C)NS(=O)(=O)c1ccc(-c2c(C#N)c3cc(OC(F)(F)F)ccc3n2C2CCC2)nc1 [compound 23, 6-[3-cyano-1-cyclobutyl-5-(trifluoromethoxy)-1H-indol-2-yl]-N-(propan-2-yl)pyridine-3-sulfonamide] | 174 to 176 | – |
| CC(C)NS(=O)(=O)c1ccc(-c2c(C#N)c3ccc(SC(C)C)cc3n2C2CCC2)nc1 [compound 16, 6-[3-cyano-1-cyclobutyl-6-(propan-2-ylsulfanyl)-1H-indol-2-yl]-N-(propan-2-yl)pyridine-3-sulfonamide] | 129 to 131 | – |
| C[C@H](NS(=O)(=O)c1ccc(-c2c(C#N)c3ccc(C4CC4)cc3n2C2CCC2)nc1)C(F)(F)F [compound 369, 6-(3-cyano-1-cyclobutyl-6-cyclopropyl-1H-indol-2-yl)-N-[(2S)-1,1,1-trifluoropropan-2-yl]pyridine-3-sulfonamide] | 191 to 197 | – |
| CC(C#N)NS(=O)(=O)c1ccc(-c2c(C#N)c3ccc(OC(F)F)cc3n2C2CCC2)nc1 (centres unmarked) [compound 301, 6-[3-cyano-1-cyclobutyl-6-(difluoromethoxy)-1H-indol-2-yl]-N-(1-cyanoethyl)pyridine-3-sulfonamide] | 188 to 190 | – |
| CC(C)NS(=O)(=O)c1ccc(-c2c(C#N)c3ccc(OC(F)F)cc3n2C2CCCCC2)nc1 [compound 99, 6-[3-cyano-1-cyclohexyl-6-(difluoromethoxy)-1H-indol-2-yl]-N-(propan-2-yl)pyridine-3-sulfonamide] | 187 to 190 | – |
| CC(C)NS(=O)(=O)c1cnc(-c2c(C#N)c3ccc(OC(F)F)cc3n2CC2CC2)nc1 [compound 170, 2-[3-cyano-1-(cyclopropylmethyl)-6-(difluoromethoxy)-1H-indol-2-yl]-N-(propan-2-yl)pyrimidine-5-sulfonamide] | 182 to 184 | – |
| CC(NS(=O)(=O)c1ccc(-c2c(C#N)c3ccc(OC(F)F)cc3n2C2CCC2)nc1)C(F)(F)F (centres unmarked) [compound 78, 6-[3-cyano-1-cyclobutyl-6-(difluoromethoxy)-1H-indol-2-yl]-N-(1,1,1-trifluoropropan-2-yl)pyridine-3-sulfonamide] | 159 to 165 | – |
| CC(C)(CF)NS(=O)(=O)c1ccc(-c2c(C#N)c3ccc(OC(F)F)cc3n2C2CCC2)nc1 [compound 77, 6-[3-cyano-1-cyclobutyl-6-(difluoromethoxy)-1H-indol-2-yl]-N-(1-fluoro-2-methylpropan-2-yl)pyridine-3-sulfonamide] | 171 to 178 | – |
| CC(C)NS(=O)(=O)c1ccc(-c2c(C#N)c3cc(C4CC4)ccc3n2C2CCC2)nc1 [compound 8, 6-(3-cyano-1-cyclobutyl-5-cyclopropyl-1H-indol-2-yl)-N-(propan-2-yl)pyridine-3-sulfonamide] | 172 to 174 | – |
| CC(C)NS(=O)(=O)c1ccc(-c2c(C#N)c3ccc(OC(F)F)cc3n2C2CCCC2)nc1 [compound 52, 6-[3-cyano-1-cyclopentyl-6-(difluoromethoxy)-1H-indol-2-yl]-N-(propan-2-yl)pyridine-3-sulfonamide] | 157 to 158 | – |

| SMILES | melting point [°C] | IC50 [1] [nM] |
| --- | --- | --- |
| C[C@@H](NS(=O)(=O)c1ccc(-c2c(C#N)c3ccc(OC(F)F)cc3n2C2CCC2)nc1)C(F)(F)F [compound 196, 6-[3-cyano-1-cyclobutyl-6-(difluoromethoxy)-1H-indol-2-yl]-N-[(2R)-1,1,1-trifluoropropan-2-yl]pyridine-3-sulfonamide] | 159 to 164 | – |
| CC(C)NS(=O)(=O)c1ccc(-c2c(C#N)c3ccc(OC(F)F)cc3n2C(C)C)nc1 [compound 1, 6-[3-cyano-6-(difluoromethoxy)-1-(propan-2-yl)-1H-indol-2-yl]-N-(propan-2-yl)pyridine-3-sulfonamide] | 157 to 159 | – |
| CC(C)NS(=O)(=O)c1ccc(-c2c(C#N)c3ccc(OC(F)F)cc3n2C2CCC2)nc1 [compound 51, 6-[3-cyano-1-cyclobutyl-6-(difluoromethoxy)-1H-indol-2-yl]-N-(propan-2-yl)pyridine-3-sulfonamide] | 158 to 159 | – |
| CC(C)NS(=O)(=O)c1ccc(-c2c(C#N)c3ccc(OCC(F)F)cc3n2C2CCC2)nc1 [compound 59, 6-[3-cyano-1-cyclobutyl-6-(2,2-difluoroethoxy)-1H-indol-2-yl]-N-(propan-2-yl)pyridine-3-sulfonamide] | 171 to 173 | – |
| CC(C)NS(=O)(=O)c1ccc(-c2c(C#N)c3ccc(OC(F)F)cc3n2CC2CC2)cn1 [compound 40, 5-[3-cyano-1-(cyclopropylmethyl)-6-(difluoromethoxy)-1H-indol-2-yl]-N-(propan-2-yl)pyridine-2-sulfonamide] | 186 to 188 | – |
| C[C@H](NS(=O)(=O)c1ccc(-c2c(C#N)c3ccc(OC(F)F)cc3n2C2CCC2)nc1)C(F)(F)F [compound 300, 6-[3-cyano-1-cyclobutyl-6-(difluoromethoxy)-1H-indol-2-yl]-N-[(2S)-1,1,1-trifluoropropan-2-yl]pyridine-3-sulfonamide] | 159 to 162 | – |
| N#Cc1c(-c2ccc(S(=O)(=O)NC3(C(F)(F)F)CC3)cn2)n(C2CCC2)c2cc(OC(F)F)ccc12 [compound 93, 6-[3-cyano-1-cyclobutyl-6-(difluoromethoxy)-1H-indol-2-yl]-N-[1-(trifluoromethyl)cyclopropyl]pyridine-3-sulfonamide] | 182 to 187 | – |
| CC(C)NS(=O)(=O)c1ccc(-c2c(C#N)c3ccc(C(F)F)cc3n2C2CCC2)nc1 [compound 333, 6-[3-cyano-1-cyclobutyl-6-(difluoromethyl)-1H-indol-2-yl]-N-(propan-2-yl)pyridine-3-sulfonamide] | 212 to 220 | – |
| N#Cc1c(-c2ccc(S(=O)(=O)NC(CF)CF)cn2)n(C2CCC2)c2cc(C3CC3)ccc12 [compound 35, 6-(3-cyano-1-cyclobutyl-6-cyclopropyl-1H-indol-2-yl)-N-(1,3-difluoropropan-2-yl)pyridine-3-sulfonamide] | 175 to 178 | – |
| CC(C)NS(=O)(=O)c1ccc(-c2c(C#N)c3ccc(C4CC4)cc3n2C2CCC2)nc1 [compound 7, 6-(3-cyano-1-cyclobutyl-6-cyclopropyl-1H-indol-2-yl)-N-(propan-2-yl)pyridine-3-sulfonamide] | 174 to 176 | – |
| CCCn1c(-c2ccc(S(=O)(=O)NC(C)C)cn2)c(C#N)c2ccc(OC(F)F)cc21 [compound 3, 6-[3-cyano-6-(difluoromethoxy)-1-propyl-1H-indol-2-yl]-N-(propan-2-yl)pyridine-3-sulfonamide] | 166 to 170 | – |
| CC(C)NS(=O)(=O)c1ccc(-c2c(C#N)c3cc(OC(F)F)ccc3n2C2CCC2)nc1 [compound 19, 6-[3-cyano-1-cyclobutyl-5-(difluoromethoxy)-1H-indol-2-yl]-N-(propan-2-yl)pyridine-3-sulfonamide] | 148 to 153 | – |
| N#Cc1c(-c2ccc(S(=O)(=O)NC(CO)CO)cn2)n(C2CCC2)c2cc(OC(F)F)ccc12 [compound 239, 6-[3-cyano-1-cyclobutyl-6-(difluoromethoxy)-1H-indol-2-yl]-N-(1,3-dihydroxypropan-2-yl)pyridine-3-sulfonamide] | 132 to 135 | – |
| CC(C)NS(=O)(=O)c1ccc(-c2c(C#N)c3ccc(OC(F)F)cc3n2CC2CC2)nc1 [compound 13, 6-[3-cyano-1-(cyclopropylmethyl)-6-(difluoromethoxy)-1H-indol-2-yl]-N-(propan-2-yl)pyridine-3-sulfonamide] | 154 to 156 | – |
| COC(=O)c1c(-c2ccc(S(=O)(=O)N[C@@H](C)C(F)(F)F)cn2)n(C2CCCC2)c2cc(C)c(F)cc12 [compound 756, (S)-methyl 1-cyclopentyl-5-fluoro-6-methyl-2-(5-(N-(1,1,1-trifluoropropan-2-yl)sulfamoyl)pyridin-2-yl)-1H-indole-3-carboxylate] | – | < 500 |
| C=CCc1cc2c(cc1F)c(C#N)c(-c1ccc(S(=O)(=O)N[C@@H](C)C(F)(F)F)cn1)n2-c1ncccn1 [compound 967, 6-[3-cyano-5-fluoro-6-(prop-2-en-1-yl)-1-(pyrimidin-2-yl)-1H-indol-2-yl]-N-[(2S)-1,1,1-trifluoropropan-2-yl]pyridine-3-sulfonamide] | – | < 500 |
